Results taken from patent US20230116602A1, “MCL1 INHIBITORS AND USES THEREOF” (California Institute of Technology, priority 2019, published 2023).

Columns and labels:
MCL1 = MCL1 (Homo sapiens, UniProt Q07820); assay: MCL1 affinity assay (competition binding, qPCR readout); details: recombinant MCL1, 11-point 3-fold dilution series
Protocol: Recombinant MCL1, BCL2 and BCXL proteins were prepared in either an E. coli host derived from the BL21 strain or in HEK-293 cells. The recombinant proteins were subsequently tagged with DNA for qPCR detection. Streptavidin-coated magnetic beads were treated for 30 minutes at room temperature with the respective biotinylated peptide ligands for each recombinant protein to generate affinity resins for the assays. The liganded beads were blocked with excess biotin and washed with blocking buffer (SeaBlock (Pierce), 1% BSA, 0.05% Tween 20, 1 mM DTT) to remove unbound ligand and to reduce nonspecific binding. Binding reactions were assembled by combining recombinant protein, liganded affinity beads, and test compounds in 1× binding buffer (20% SeaBlock, 0.17×PBS, 0.05% Tween 20, 6 mM DTT). Test compounds were prepared as 111X stocks in 100% DMSO. The compounds were then diluted directly into the assays such that the final concentration of DMSO was 0.9%. The assay plates were incubated at room temperature with shaking for 1 hour and the affinity beads were washed with wash buffer (1×PBS, 0.05% Tween 20). The beads were then re-suspended in elution buffer (1×PBS, 0.05% Tween 20, 0.5 μM non-biotinylated affinity ligand) and incubated at room temperature with shaking for 30 minutes. The recombinant protein concentration in the eluates was measured by qPCR. Kds were determined using an 11-point 3-fold compound dilution series with three DMSO control points.

[1] = tested on: drug-resistant cell lines of Table 3; assay: Cell line growth retardation assay, resistant cohort; format: cell-based, Human; details: Homo sapiens, 144 h; arithmetic mean of IC50s over the resistant cohort of Table 3, 6 days growth; read-out: AvgRes IC50
Protocol: (§1) Cells were seeded at densities of 1,000-5,000 cells per well in 48-well tissue culture plates. After a 24 h rest period, cells were treated with compound at 10 μM, 1 μM, […], 0.08 μM, 0.016 μM, and 0.0032 μM. A group of cells were treated with the vehicle in which the compound was prepared and served as a control. Prior to treatment, cells were counted and this count was used as a baseline for the calculation of growth inhibition. The cells were grown in the presence of compounds for 6 days and were counted on day 6. All cell counting was performed using a Synentec Cellavista plate imager. Growth inhibition was calculated as a ratio of cell population doublings in the presence of compound versus the absence of compound. […] IC50 values for each compound were calculated by fitting curves to data points from each dose-response assay using the Proc NLIN function in SAS for Windows version 9.2 (SAS Institute, Inc.).
(§2) Human cancer cell lines were grouped as “sensitive” or “resistant” to MCL1 inhibition based on whether their growth was retarded by AMG-176 (i.e., (1′S,11R,12S,14E,16S,16aR,18aR)-6′-Chloro-3′,4′,12,13,16,16a,17,18,18a,19-decahydro-16-methoxy-11,12-dimethyl-,Spiro[5,7-etheno-1H,11H-cyclobut[i][1,4]oxazepino[3,4-f][1,2,7]thiadiazacyclohexadecine-2(3H),1′(2′H)-naphthalen]-8(9H)-one 10,10-dioxide) or MIK665 (i.e., (R)-2-((5-(3-chloro-2-methyl-4-(2-(4-methylpiperazin-1-yl)ethoxy)phenyl)-6-(4-fluorophenyl)thieno[2,3-d]pyrimidin-4-yl)oxy)-3-(2-((2-(2-methoxyphenyl)pyrimidin-4-yl)methoxy)phenyl)propanoic acid) (data not shown; see Table 3). These sensitive and resistant cohorts were interrogated for response to each compound, and IC50S were calculated for each cell line using the same technique described above. Average IC50S for the sensitive (“AvgSen IC50”) and resistant (“AvgRes IC50”) cohorts were calculated as arithmetic means of the group, and fold differences (“Fold Diff”) between the resistant and sensitive cohorts were calculated by diving the average IC50 for the resistant cohort by the average IC50 for the sensitive cohort. “A” represents an IC50 of 1 μM or less, “B” represents an IC50 of greater than 1 μM to 5 μM, “C” represents an IC50 of greater than 5 μM, “+” represents a fold difference of 10 or more, and “−” represents a fold difference less than 10.

[2] = tested on: drug-sensitive cell lines of Table 3; assay: Cell line growth retardation assay, sensitive cohort; format: cell-based, Human; details: for IC50: Homo sapiens, 144 h, arithmetic mean of IC50s over the sensitive cohort of Table 3, 6 days growth, read-out: AvgSen IC50; for Fold Diff: average IC50 of resistant cohort divided by average IC50 of sensitive cohort
Protocol: as §1, §2

Sequence of MCL1 (Q07820 whole entry): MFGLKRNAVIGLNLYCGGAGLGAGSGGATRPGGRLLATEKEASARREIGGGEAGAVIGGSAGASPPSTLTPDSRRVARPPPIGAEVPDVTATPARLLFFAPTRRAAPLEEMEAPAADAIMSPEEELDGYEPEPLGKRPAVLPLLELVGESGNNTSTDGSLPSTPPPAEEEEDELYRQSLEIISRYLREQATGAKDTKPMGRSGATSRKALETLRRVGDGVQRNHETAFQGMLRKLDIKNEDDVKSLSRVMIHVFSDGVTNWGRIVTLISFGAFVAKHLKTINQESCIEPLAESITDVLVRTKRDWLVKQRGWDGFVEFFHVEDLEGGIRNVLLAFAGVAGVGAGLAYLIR

Kd (MCL1) | Structure (SMILES) | IC50 [1] | IC50 [2] | Fold Diff [2]
≤ 100 nM | COCc1ccccc1-c1nccc(COc2ccccc2C[C@@H](Oc2nsc3cnc(-c4cccc(OC)c4)c(-c4ccc(OCCN5CCN(C)CC5)c(Cl)c4C)c23)C(=O)O)n1 (atropisomer, axis not shown) [Compound 65] | > 5000 nM | ≤ 1000 nM | + (“+” represents a fold difference of 10 or more)
≤ 100 nM | COc1cccc(-c2ncc3snc(O[C@H](Cc4ccccc4OCc4ccnc(-c5ccccc5OC(F)F)n4)C(=O)O)c3c2-c2ccc(OCCN3CCN(C)CC3)c(Cl)c2C)c1 (atropisomer, axis not shown) [Compound 66] | > 5000 nM | ≤ 1000 nM | + (“+” represents a fold difference of 10 or more)
≤ 100 nM | COc1cccc(-c2ncc3snc(O[C@H](Cc4ccccc4OCc4ccnc(-c5cc(F)ccc5OC)n4)C(=O)O)c3c2-c2ccc(OCCN3CCN(C)CC3)c(Cl)c2C)c1 (atropisomer, axis not shown) [Compound 67] | > 5000 nM | ≤ 1000 nM | + (“+” represents a fold difference of 10 or more)
≤ 100 nM | COc1cccc(-c2ncc3snc(O[C@H](Cc4ccccc4OCc4ccnc(-c5ccccc5S(C)(=O)=O)n4)C(=O)O)c3c2-c2ccc(OCCN3CCN(C)CC3)c(Cl)c2C)c1 (atropisomer, axis not shown) [Compound 68] | > 5000 nM | 1000 to 5000 nM | − (“−” represents a fold difference less than 10)
≤ 100 nM | Cc1c(-c2c(-c3cccc(F)c3)ncc3snc(O[C@H](Cc4ccccc4OCc4ccnc(OCC(F)(F)F)n4)C(=O)O)c23)ccc(OCCN2CCN(C)CC2)c1Cl (atropisomer, axis not shown) [Compound 69] | > 5000 nM | ≤ 1000 nM | + (“+” represents a fold difference of 10 or more)
101 to 500 nM | COc1cccc(-c2ncc3snc(O[C@H](Cc4ccccc4OCc4ccnc(N5CCC(OC)CC5)n4)C(=O)O)c3c2-c2ccc(OCCN3CCN(C)CC3)c(Cl)c2C)c1 (atropisomer, axis not shown) [Compound 70] | > 5000 nM | ≤ 1000 nM | + (“+” represents a fold difference of 10 or more)
≤ 100 nM | COc1ccc(F)cc1-c1nccc(COc2ccccc2C[C@@H](Oc2nsc3cnc(C4CCC4)c(-c4ccc(OCCN5CCN(C)CC5)c(Cl)c4C)c23)C(=O)O)n1 (atropisomer, axis not shown) [Compound 73] | > 5000 nM | ≤ 1000 nM | + (“+” represents a fold difference of 10 or more)
> 1500 nM | Cc1c(-c2c(C3CCC3)ncc3snc(O[C@H](Cc4ccccc4OCc4ccnc(-c5ccncc5)n4)C(=O)O)c23)ccc(OCCN2CCN(C)CC2)c1Cl (atropisomer, axis not shown) [Compound 74] | > 5000 nM | > 5000 nM | − (“−” represents a fold difference less than 10)
101 to 500 nM | CCn1cc(-c2ncc3snc(O[C@H](Cc4ccccc4OCc4ccnc(-c5ccccc5OC)n4)C(=O)O)c3c2-c2ccc(OCCN3CCN(C)CC3)c(Cl)c2C)cn1 (atropisomer, axis not shown) [Compound 75] | > 5000 nM | > 5000 nM | − (“−” represents a fold difference less than 10)
501 to 1500 nM | CCn1ccc(-c2ncc3snc(O[C@H](Cc4ccccc4OCc4ccnc(-c5ccccc5OC)n4)C(=O)O)c3c2-c2ccc(OCCN3CCN(C)CC3)c(Cl)c2C)n1 (atropisomer, axis not shown) [Compound 76] | > 5000 nM | > 5000 nM | − (“−” represents a fold difference less than 10)
≤ 100 nM | COc1ccccc1-c1nccc(COc2ccccc2C[C@@H](Oc2nsc3cnc(-c4cnc(C)o4)c(-c4ccc(OCCN5CCN(C)CC5)c(Cl)c4C)c23)C(=O)O)n1 (atropisomer, axis not shown) [Compound 77] | > 5000 nM | 1000 to 5000 nM | − (“−” represents a fold difference less than 10)
≤ 100 nM | COc1ccccc1-c1nccc(COc2ccccc2C[C@@H](Oc2nsc3cnc(-c4cnc(C5CC5)o4)c(-c4ccc(OCCN5CCN(C)CC5)c(Cl)c4C)c23)C(=O)O)n1 (atropisomer, axis not shown) [Compound 78] | > 5000 nM | 1000 to 5000 nM | − (“−” represents a fold difference less than 10)
501 to 1500 nM | COc1ccccc1-c1nccc(COc2ccccc2C[C@@H](Oc2nsc3cnc(-c4cnn(CC(C)C)c4)c(-c4ccc(OCCN5CCN(C)CC5)c(Cl)c4C)c23)C(=O)O)n1 (atropisomer, axis not shown) [Compound 79] | 1000 to 5000 nM | ≤ 1000 nM | − (“−” represents a fold difference less than 10)
≤ 100 nM | COc1ccccc1-c1nccc(COc2ccccc2C[C@@H](Oc2nsc3cnc(-c4cccc(C#N)c4)c(-c4ccc(OCCN5CCN(C)CC5)c(Cl)c4C)c23)C(=O)O)n1 (atropisomer, axis not shown) [Compound 80] | > 5000 nM | ≤ 1000 nM | + (“+” represents a fold difference of 10 or more)
≤ 100 nM | COc1ccccc1-c1nccc(COc2ccccc2C[C@@H](Oc2nsc3cnc(-c4ccc(F)cc4)c(-c4ccc(OCCC5CCN(C)CC5)c(Cl)c4C)c23)C(=O)O)n1 (atropisomer, axis not shown) [Compound 81] | > 5000 nM | 1000 to 5000 nM | − (“−” represents a fold difference less than 10)
≤ 100 nM | COc1ccccc1-c1nccc(COc2ccccc2C[C@@H](Oc2nsc3cnc(-c4cc(F)c(F)c(F)c4)c(-c4ccc(OCCN5CCN(C)CC5)c(Cl)c4C)c23)C(=O)O)n1 (atropisomer, axis not shown) [Compound 84] | > 5000 nM | ≤ 1000 nM | + (“+” represents a fold difference of 10 or more)
≤ 100 nM | COc1ccccc1-c1nccc(COc2ccccc2C[C@@H](Oc2nsc3cnc(-c4ccc(F)c(F)c4)c(-c4ccc(OCCN5CCN(C)CC5)c(Cl)c4C)c23)C(=O)O)n1 (atropisomer, axis not shown) [Compound 85] | > 5000 nM | ≤ 1000 nM | + (“+” represents a fold difference of 10 or more)
501 to 1500 nM | COc1ccccc1-c1nccc(COc2ccccc2C[C@@H](Oc2nsc3cnc(-c4ccc(F)cc4C)c(-c4ccc(OCCN5CCN(C)CC5)c(Cl)c4C)c23)C(=O)O)n1 (atropisomer, axis not shown) [Compound 86] | > 5000 nM | 1000 to 5000 nM | − (“−” represents a fold difference less than 10)
≤ 100 nM | CCOc1cccc(-c2ncc3snc(O[C@H](Cc4ccccc4OCc4ccnc(-c5ccccc5OC)n4)C(=O)O)c3c2-c2ccc(OCCN3CCN(C)CC3)c(Cl)c2C)c1 (atropisomer, axis not shown) [Compound 87] | > 5000 nM | ≤ 1000 nM | + (“+” represents a fold difference of 10 or more)
≤ 100 nM | COc1ccccc1-c1nccc(COc2ccccc2C[C@@H](Oc2nsc3cnc(-c4ccc(F)c(Cl)c4)c(-c4ccc(OCCN5CCN(C)CC5)c(Cl)c4C)c23)C(=O)O)n1 (atropisomer, axis not shown) [Compound 88] | > 5000 nM | ≤ 1000 nM | + (“+” represents a fold difference of 10 or more)
